Measurements published in PubChem BioAssay (NCI).
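The concentration for 50% growth inhibition is given as GI50. TGI marks complete inhibition of growth.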

What was measured:
Experiment in all cases: inhibition of tumour cell growth, NCI panel, 384-well format
786-0 renal = tested on: 786-0 renal
A498 renal = tested on: A498 renal
A549 NSCLC = tested on: A549 NSCLC
ACHN renal = tested on: ACHN renal
BT-549 breast = tested on: BT-549 breast
CAKI-1 renal = tested on: CAKI-1 renal
CCRF-CEM leukemia = tested on: CCRF-CEM leukemia
COLO 205 colon = tested on: COLO 205 colon
DU-145 prostate = tested on: DU-145 prostate
EKVX NSCLC = tested on: EKVX NSCLC
HCC-2998 colon = tested on: HCC-2998 colon
HCT-15 colon = tested on: HCT-15 colon
HL-60(TB) leukemia = tested on: HL-60(TB) leukemia
HOP-62 NSCLC = tested on: HOP-62 NSCLC
HOP-92 NSCLC = tested on: HOP-92 NSCLC
HS 578T breast = tested on: HS 578T breast
HT29 colon = tested on: HT29 colon
IGROV1 ovarian = tested on: IGROV1 ovarian
K-562 leukemia = tested on: K-562 leukemia
KM12 colon = tested on: KM12 colon
LOX IMVI melanoma = tested on: LOX IMVI melanoma
M14 melanoma = tested on: M14 melanoma
MALME-3M melanoma = tested on: MALME-3M melanoma
MCF7 breast = tested on: MCF7 breast
MDA-MB-231 breast = tested on: MDA-MB-231 breast
MDA-MB-435 melanoma = tested on: MDA-MB-435 melanoma
MDA-MB-468 breast = tested on: MDA-MB-468 breast
MOLT-4 leukemia = tested on: MOLT-4 leukemia
NCI-H226 lung = tested on: NCI-H226 lung
NCI-H23 lung = tested on: NCI-H23 lung
NCI-H322M lung = tested on: NCI-H322M lung
NCI-H460 NSCLC = tested on: NCI-H460 NSCLC
NCI-H522 lung = tested on: NCI-H522 lung
NCI/ADR-RES ovarian = tested on: NCI/ADR-RES ovarian
OVCAR-3 ovarian = tested on: OVCAR-3 ovarian
OVCAR-4 ovarian = tested on: OVCAR-4 ovarian
OVCAR-5 ovarian = tested on: OVCAR-5 ovarian
OVCAR-8 ovarian = tested on: OVCAR-8 ovarian
PC-3 prostate = tested on: PC-3 prostate
RPMI-8226 leukemia = tested on: RPMI-8226 leukemia
RXF 393 renal = tested on: RXF 393 renal
SF-268 CNS = tested on: SF-268 CNS
SF-295 CNS = tested on: SF-295 CNS
SF-539 CNS = tested on: SF-539 CNS
SK-MEL-28 melanoma = tested on: SK-MEL-28 melanoma
SK-MEL-5 melanoma = tested on: SK-MEL-5 melanoma
SK-OV-3 ovarian = tested on: SK-OV-3 ovarian
SN12C renal = tested on: SN12C renal
SNB-19 CNS = tested on: SNB-19 CNS
SNB-75 CNS = tested on: SNB-75 CNS
SR leukemia = tested on: SR leukemia
SW-620 colon = tested on: SW-620 colon
T-47D breast = tested on: T-47D breast
TK-10 renal = tested on: TK-10 renal
U251 glioblastoma = tested on: U251 glioblastoma
UACC-257 melanoma = tested on: UACC-257 melanoma
UACC-62 melanoma = tested on: UACC-62 melanoma
UO-31 renal = tested on: UO-31 renal

CCN1C(=O)CCCc2c1ccc(Nc1ncc(Cl)c(NC3[C@@H](C(N)=O)[C@@H]4C=C[C@H]3C4)n1)c2OC (stereo partly specified)
GI50 ([…]-0 renal): 624 nM | TGI (786-0 renal): 2330 nM | GI50 (A498 renal): 1770 nM | TGI (A498 renal): 11500 nM | GI50 (A549 NSCLC): 366 nM | TGI (A549 NSCLC): 2550 nM | GI50 (ACHN renal): 1200 nM | TGI (ACHN renal): 7310 nM | GI50 (BT-549 breast): 509 nM | TGI (BT-549 breast): 1880 nM | GI50 (CAKI-1 renal): 1230 nM | TGI (CAKI-1 renal): 4500 nM | GI50 (CCRF-CEM leukemia): 220 nM | TGI (CCRF-CEM leukemia): 402 nM | GI50 (COLO 205 colon): 318 nM | TGI (COLO 205 colon): 1190 nM | GI50 (DU-145 prostate): 577 nM | TGI (DU-145 prostate): 2800 nM | GI50 (EKVX NSCLC): 927 nM | TGI (EKVX NSCLC): 3260 nM | GI50 (HCC-2998 colon): 1680 nM | TGI (HCC-2998 colon): 3070 nM | GI50 (HCT-15 colon): 288 nM | TGI (HCT-15 colon): 1210 nM | GI50 (HL-60(TB) leukemia): 254 nM | TGI (HL-60(TB) leukemia): 532 nM | GI50 (HOP-62 NSCLC): 644 nM | TGI (HOP-62 NSCLC): 2990 nM | GI50 (HOP-92 NSCLC): 665 nM | TGI (HOP-92 NSCLC): 3990 nM | GI50 (HS 578T breast): 437 nM | TGI (HS 578T breast): 1670 nM | GI50 (HT29 colon): 450 nM | TGI (HT29 colon): 2000 nM | GI50 (IGROV1 ovarian): 1320 nM | TGI (IGROV1 ovarian): 2770 nM | GI50 (K-562 leukemia): 722 nM | TGI (K-562 leukemia): 11600 nM | GI50 (KM12 colon): 1100 nM | TGI (KM12 colon): 8560 nM | GI50 (LOX IMVI melanoma): 334 nM | TGI (LOX IMVI melanoma): 1200 nM | GI50 (M14 melanoma): 499 nM | TGI (M14 melanoma): 1700 nM | GI50 (MALME-3M melanoma): 517 nM | TGI (MALME-3M melanoma): 1920 nM | GI50 (MCF7 breast): 562 nM | TGI (MCF7 breast): 2340 nM | GI50 (MDA-MB-231 breast): 726 nM | TGI (MDA-MB-231 breast): 4400 nM | GI50 (MDA-MB-435 melanoma): 728 nM | TGI (MDA-MB-435 melanoma): 3490 nM | GI50 (MDA-MB-468 breast): 365 nM | TGI (MDA-MB-468 breast): 912 nM | GI50 (MOLT-4 leukemia): 137 nM | TGI (MOLT-4 leukemia): 287 nM | GI50 (NCI-H226 lung): 1130 nM | TGI (NCI-H226 lung): 4420 nM | GI50 (NCI-H23 lung): 430 nM | TGI (NCI-H23 lung): 1620 nM | GI50 (NCI-H322M lung): 1900 nM | TGI (NCI-H322M lung): 5610 nM | GI50 (NCI-H460 NSCLC): 355 nM | TGI (NCI-H460 NSCLC): 9120 nM | GI50 (NCI-H522 lung): 385 nM | TGI (NCI-H522 lung): 1310 nM | GI50 (NCI/ADR-RES ovarian): 1070 nM | TGI (NCI/ADR-RES ovarian): 2400 nM | GI50 (OVCAR-3 ovarian): 1020 nM | TGI (OVCAR-3 ovarian): 2770 nM | GI50 (OVCAR-4 ovarian): 1100 nM | TGI (OVCAR-4 ovarian): 2700 nM | GI50 (OVCAR-5 ovarian): 559 nM | TGI (OVCAR-5 ovarian): 2310 nM | GI50 (OVCAR-8 ovarian): 349 nM | TGI (OVCAR-8 ovarian): 1220 nM | GI50 (PC-3 prostate): 1240 nM | TGI (PC-3 prostate): 3810 nM | GI50 (RPMI-8226 leukemia): 226 nM | TGI (RPMI-8226 leukemia): 501 nM | GI50 (RXF 393 renal): 1620 nM | TGI (RXF 393 renal): 3950 nM | GI50 (SF-268 CNS): 1220 nM | TGI (SF-268 CNS): 4350 nM | GI50 (SF-295 CNS): 812 nM | TGI (SF-295 CNS): 8310 nM | GI50 (SF-539 CNS): 475 nM | TGI (SF-539 CNS): 1780 nM | GI50 (SK-MEL-28 melanoma): 1080 nM | TGI (SK-MEL-28 melanoma): 2570 nM | GI50 (SK-MEL-5 melanoma): 578 nM | TGI (SK-MEL-5 melanoma): 1950 nM | GI50 (SK-OV-3 ovarian): 1400 nM | TGI (SK-OV-3 ovarian): 3250 nM | GI50 (SN12C renal): 1210 nM | TGI (SN12C renal): 11100 nM | GI50 (SNB-19 CNS): 1380 nM | TGI (SNB-19 CNS): 7130 nM | GI50 (SNB-75 CNS): 1100 nM | TGI (SNB-75 CNS): 9580 nM | GI50 (SR leukemia): 38 nM | TGI (SR leukemia): 126 nM | GI50 (SW-620 colon): 434 nM | TGI (SW-620 colon): 1720 nM | GI50 (T-47D breast): 1070 nM | TGI (T-47D breast): 4240 nM | GI50 (TK-10 renal): 1300 nM | TGI (TK-10 renal): 3750 nM | GI50 (U251 glioblastoma): 632 nM | TGI (U251 glioblastoma): 10900 nM | GI50 (UACC-257 melanoma): 677 nM | TGI (UACC-257 melanoma): 2150 nM | GI50 (UACC-62 melanoma): 536 nM | TGI (UACC-62 melanoma): 1800 nM | GI50 (UO-31 renal): 1630 nM | TGI (UO-31 renal): 14300 nM
